Reference: US4803197A, “2,1-benzothiazepine-2,2-dioxide-5-carboxylic acid derivatives” (Ciba-Geigy Corporation, priority 1987, dated 1989)

Columns and labels:
human neutrophils = assay: inhibition of binding of f-MLP to human neutrophils in vitro; details: at a concentration of about 1×10^-6 M; sodium salt
Experimental: The inhibition of the chemotactic activation of neutrophils is determined in vitro, e.g. by measuring the inhibition of the binding of f-MLP (formyl-methionylleucyl-phenylalanine) to human neutrophils in vitro as follows:
Human neutrophils are isolated by a modification of the procedure of Ferrante and Thong (J. Immunol. Methods 24:389, 1978). Red cells remaining in the neutrophil preparation are lysed by separate treatments with 0.83% NH4 Cl and 0.1M tris-HCl, pH 7.5. Neutrophils are incubated in Hanks' buffer at 0° C. for 60 minutes with 15 nM ^3 H-f-MLP and test compound. Aliquots of the incubates are filtered and total ^3 H-f-MLP bound is measured. Non-specific binding in the presence of excess non-radioactive f-MLP is substracted, and percent inhibition of binding by the test drug is calculated. Final concentrations of solvents such as dimethylacetamide or ethanol which may be used to dissolve the test compound cannot exceed 1% in the incubation mixture.

[1] = test system: leukotriene and 5-HETE formation; assay: leukotriene and 5-HETE formation in whole blood after oral administration in rats; assay type: in vivo; details: 50 mg/Kg p.o.
Experimental: Furthermore inhibition of the formation of leukotrienes and 5-HETE is determined e.g. by measuring their concentration in whole blood after oral administration in rats.

bovine nasal cartilage [2] = assay: synovial catabolin-induced degradation of bovine nasal cartilage; assay type: cell-based; details: at a concentration of about 1×10^-5 M
Text: The inhibition of cartilage matrix degradation can also be similarly determined by measuring the decrease in proteoglycan release on synovial catabolin-induced degradation of bovine nasal cartilage.

carrageenin pleurisy = assay: carrageenin-induced pleurisy model of inflammation in the rat; assay type: in vivo; details: 10 mg/Kg p.o.
Experimental: Antiinflammatory activity is determined by measuring the inhibition of the edema and of the mononuclear cell influx after oral administration in the rat model in which pleurisy is first induced by injecting carrageenin into the pleural cavity, e.g. according to A. P. Almeida et al., J. Pharmacol. Exp. Therap. 214, 74 (1980).

bovine nasal cartilage [3] = assay: bovine nasal cartilage-synovium co-culture model of cartilage matrix degradation; assay type: cell-based; details: at a concentration of about 1×10^-5 M
Experimental: The inhibition of cartilage matrix degradation can be determined in vitro in the bovine nasal cartilage-synovium co-culture model of cartilage matrix degradation which is carried out as follows:
The proteoglycan matrix of bovine nasal septum cartilage is labeled in vitro by incorporation of ^35 S into glycosaminoglycan. Cartilage slices are incubated overnight in a sulfate free medium containing ^35 S-sodium sulfate. ^35 S-Labeled cartilage slices are co-cultured with normal synovium explants in multiwell tissue culture plates. After 4 days incubation a 100μl aliquot of medium is counted. Cartilage slices are hydrolyzed and a 100μl aliquot of cartilage hydrolysate is counted. The percent ^35 S released into the medium is determined and the percent inhibition of matrix degradation is calculated.

[4] = test system: accumulation of neutrophils; assay: accumulation of neutrophils into carrageenin-impregnated polyurethane sponges in the rat; assay type: in vivo; details: 25 mg/Kg p.o.
Text: The inhibition of the chemotactic activation of neutrophils can also be determined in vivo by measuring the inhibition of the accumulation of neutrophils into carrageenin impregnated polyurethane sponges after oral administration in the rat.

SMILES: O=C(Nc1ccc(Cl)cc1)C1=C(O)CS(=O)(=O)N(Cc2ccc(Cl)cc2)c2ccccc21.[Na] [Example 2, N-(4-chlorophenyl)-1-(4-chlorophenylmethyl)-1,3-dihydro-4-hydroxy-2,1-benzothiazepine-5-carboxamide-2,2-dioxide sodium salt]
- inhibition of the binding of f-MLP to human neutrophils (human neutrophils): effective in inhibiting
- inhibition of 5-HETE formation in whole rat blood [1]: effectively inhibits
- inhibition of leukotriene formation in whole rat blood [1]: effectively inhibits
- inhibition of release of proteoglycan in catabolin-induced degradation of cartilage (bovine nasal cartilage [2]): inhibits
- inhibition of edema formation in the pleurisy model of inflammation (carrageenin pleurisy): significantly inhibits
- inhibition of mononuclear cell influx in the pleurisy model of inflammation (carrageenin pleurisy): significantly inhibits
- inhibition of release of proteoglycan in synovium-induced degradation of cartilage (bovine nasal cartilage [3]): inhibits
- accumulation of neutrophils into carrageenin-impregnated sponges [4]: effectively diminishes
